According to patent publication EP0525836B1, “Assay method using novel NAD synthetase” (priority 1986, dated 1988):

molecular target: T1, NAD synthetase (Geobacillus stearothermophilus ATCC 12980, UniProt A0ACH1E6M2); assay: Optimum concentration of metallic ion (Example 8); format: biochemical, Bacillus stearothermophilus H-804; conditions: 0.25 to 4 mM tested in reaction medium I without MgCℓ2
T1 sequence (A0ACH1E6M2 1-246): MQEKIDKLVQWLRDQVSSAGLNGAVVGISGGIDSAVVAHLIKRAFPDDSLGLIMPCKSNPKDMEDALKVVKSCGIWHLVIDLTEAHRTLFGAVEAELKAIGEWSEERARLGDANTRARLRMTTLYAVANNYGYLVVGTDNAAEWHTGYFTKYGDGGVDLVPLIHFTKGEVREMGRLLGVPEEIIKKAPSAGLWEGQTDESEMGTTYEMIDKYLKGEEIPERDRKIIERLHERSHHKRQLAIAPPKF
Description: Reaction medium I : • 50 mM Tris-HC ℓ buffer pH 8.0 • 10 mM KC ℓ • 2 mM ATP • 0.05 % bovine serum albumin • 0.5 mM deamide-NAD • 25 mM ( NH4 )2SO4
Reaction medium II: • 50 mM Tris-HC ℓ buffer pH 8.0 • 10 U diaphorase/m ℓ ( Toyo Jozo Co, Bacillus ) • 3 % ethanol • 10 U alcohol dehydrogenase/mℓ (Toyobo Co, yeast) • 0.025 % NTB • 0.1 % Triton X-100 • 10mM EDTA
To a reaction medium I in a test tube were added 0.25, 0.50, 0.75, 1, 2, 3 and 4 mM MgCℓ2 and 0.25, 0.50, 0.75, 1, 2, 3 and 4 mM MnCℓ2, respectively; each was then treated, after adding the present NAD synthetase solution, according to an assay method as previously illustrated.
Optimum concentration of MnCℓ2 is at 3mM.

Compound	Optimum concentration
MnCℓ2	3 mM

molecular target: NAD synthetase ( EC 6.3.1.5 ) (Escherichia coli, UniProt P18843); assay: not given; conditions: read-out: km-value, literature value; cited from earlier work
Sequence (P18843 whole entry): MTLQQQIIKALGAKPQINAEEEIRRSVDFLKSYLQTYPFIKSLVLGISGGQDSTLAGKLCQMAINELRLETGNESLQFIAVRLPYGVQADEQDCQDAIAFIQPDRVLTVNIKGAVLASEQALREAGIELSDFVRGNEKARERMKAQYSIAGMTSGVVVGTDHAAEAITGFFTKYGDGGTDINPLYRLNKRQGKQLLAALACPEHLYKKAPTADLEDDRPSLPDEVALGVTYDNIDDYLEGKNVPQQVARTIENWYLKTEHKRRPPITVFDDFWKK

Compound	Km
NC(=O)CC[C@H](N)C(=O)O [L-glutamine]	16 mM

molecular target: T1, NAD synthetase; assay: biochemical; format: biochemical, Bacillus stearothermophilus H-804; conditions: 5 mM in reaction medium I
Description: In the enzyme activity assay, each metallic ion ( 5 mM ), EDTA ( 20 mM ) or each surface active agent ( 0.1 % ) in Table 1 is added separately to the reaction medium I, and the enzyme activity is measured. […]
(§1) • 50 mM Tris-HC ℓ buffer pH 8.0 • 1 mM K C ℓ • 5 mM MgC ℓ 2 • 0.05 % bovine serum albumin • 2 mM ATP • 0.5 mM deamide-NAD • 25 mM ( NH4 )2 SO4
(§2) • 50 mM Tris-HCℓ buffer pH 8.0 • 10 U diaphorase ( Toyo Jozo Co. from genus Bacillus) • 3 % ethanol • 10 U alcohol dehydrogenase/m ℓ ( Toyo Jozo, yeast ) • 0.025 % NTB ( nitrotetrazolium blue ) • 0.1 % Triton X-100 • 10 mM EDTA
(§3) Reaction medium I ( 0.3 mℓ ) in a test tube is pre-incubated at 37 °C, and the enzyme solution ( 5 µ ℓ ) is added thereto. The mixture is then incubated at 37 °C for exactly 10 minutes.
(§4) Reaction medium II ( 0.8 mℓ ) is added thereto to stop the reaction and simultaneously to start the cycling reaction at 37°C for exactly 5 minutes. After stopping the cycling reaction by adding 0.1 N-HC ℓ( 2.0 mℓ) , the absorbency at 550 nm is measured to calculate the enzyme activity. The enzyme activity is calculated by the following equation : NAD synthetase activity ( mU/ m ℓ ) = (ΔA550)/(ΔS550)x(1.0)/(0.005)x(f)/(10) [formula] wherein ΔA: absorbency of specimen, ΔS: absorbency of standard solution ( 0.1 mM NAD ), 0.005: specimen volume ( mℓ ) 10 : reaction time, f : dilution ration.

Compound	Effect on enzyme activity
NiCℓ2	inhibited

same assay, conditions: 20000 µM

Compound	Effect on enzyme activity
O=C(O)CN(CCN(CC(=O)O)CC(=O)O)CC(=O)O [EDTA, reference compound]	no activity

same assay, conditions: metallic ion 5 mM added to reaction medium I, which contains MgCℓ2 5 mM; no addition = 100; 10 min

Compound	Relative activity
BaCℓ2	89.5%
CaCℓ2	48.4%
NiCℓ2	7.3%
LiCℓ	100%
MnCℓ2	54.0%
NaN3	102.4%
NaNO3	96.8%
KNO3	99.2%
AℓCℓ3	73.4%
FeCℓ3	88.4%
NaCℓ	102.4%
CsCℓ	100%

same assay, conditions: read-out: Relative activity

Compound	activity at 20000 µM
O=C(O)CN(CCN(CC(=O)O)CC(=O)O)CC(=O)O [EDTA, reference compound]	0%

same assay, conditions: surface active agent 0.1 % added to reaction medium I, which contains MgCℓ2 5 mM; no addition = 100

Compound	Relative activity
iso-octyl phenoxy polyethyloxy ethanol [Triton X-100]	109.6%
Nonidet P-40	103.9%

molecular target: T1, NAD synthetase; assay: Substrate specificity: ( NH4 ) 2SO4 replaced by amino acids in the enzyme activity assay; format: biochemical, Bacillus stearothermophilus H-804; conditions: ( NH4 ) 2SO4 25 mM replaced by the amino acid; activity on ( NH4 ) 2SO4 is 100
Description: In any assay method for enzyme activity hereinafter described, ( NH4 ) 2SO4 25 mM may be replaced by L-valine, L-homosirine, L-serine, L-alanine, L-methine, L-tyrosine, L-threonine, L-leucine, L-isolucine, L-arginine, L-phenylalanine, L-histidine, L-asparagine or L-glutamine, and the enzymatic activity measured.
as §1, §2, §3, §4

Compound	Relative activity of the enzyme
ammonium sulfate [( NH4 ) 2SO4]	100

same assay, conditions: ( NH4 ) 2SO4 25 mM replaced by the amino acid; activity on ( NH4 ) 2SO4 is 100; read-out: Relative activity of the enzyme

Compound	activity at 25000 µM
N=C(N)NCCC[C@H](N)C(=O)O [L-arginine]	0%
N[C@@H](Cc1c[nH]cn1)C(=O)O [L-histidine]	0%
CC(C)C[C@H](N)C(=O)O [L-leucine]	0%
N[C@@H](Cc1ccccc1)C(=O)O [L-phenylalanine]	0%
C[C@@H](O)[C@H](N)C(=O)O [L-threonine]	0%
N[C@@H](CO)C(=O)O [L-serine]	0%
CC[C@H](C)[C@H](N)C(=O)O [L-isolucine]	0%
CSCC[C@H](N)C(=O)O [L-methine]	0%
N[C@@H](Cc1ccc(O)cc1)C(=O)O [L-tyrosine]	0%
C[C@H](N)C(=O)O [L-alanine]	0%
N[C@@H](CCO)C(=O)O [L-homosirine]	0%
CC(C)[C@H](N)C(=O)O [L-valine]	0%
NC(=O)C[C@H](N)C(=O)O [L-asparagine]	0%
NC(=O)CC[C@H](N)C(=O)O [L-glutamine]	0%
